Assay results: patent EP4707280A1, “1,4-CINEOLE DERIVATIVE AND INTERMEDIATE THEREOF, HERBICIDE CONTAINING SAID DERIVATIVE AS ACTIVE INGREDIENT, METHOD FOR USING HERBICIDE, AND METHOD FOR PREPARING AGROCHEMICAL COMPOSITION” (HOKKO CHEMICAL INDUSTRY CO., LTD., priority 2023, dated 2024)

What was measured:
Type in all cases: in vivo
[1] = system: Echinochloa crus-galli var. formosensis; experiment: Test Example 2: herbicidal effect test by application during growth period of paddy rice; conditions: Echinochloa crus-galli; 120 g per 10 ares; applied seven days after sowing, flooded pots; 14 days after application; read-out: weed inhibition rate
How it was run: (§1)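 Steps: puddle fertilized paddy soil; sow 30 seeds of each weed at 0–1 cm; flood to roughly 3 cm and keep in a glasshouse; at day 7 drop in diluted emulsifiable concentrate (120 g a.i. per 10 ares); score inhibition (%) 14 days later, two replicates.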

[2] = system: Digitaria ciliaris; experiment: Test Example 3: herbicidal effect test by soil application in upland field; conditions: Digitaria ciliaris, 120 g per 10 ares, sprayed one day after sowing, 14 days after application, read-out: weed inhibition rate
How it was run: (§2)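 Pre-emergence test: seeds mixed into top 1 cm of alluvial loam upland soil in pots; emulsifiable concentrate diluted in water sprayed on soil one day after sowing at 100 L/10 a, 120 g a.i./10 a. Weed inhibition rate (%) scored at 14 days, in duplicate.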

[3] = system: Echinochloa crus-galli; experiment: as above; conditions: Echinochloa crus-galli, 120 g per 10 ares, sprayed one day after sowing, 14 days after application, read-out: weed inhibition rate
How it was run: as §2

[4] = system: Echinochloa crus-galli; experiment: Test Example 4: herbicidal effect test by stem and leaf treatment in upland field; conditions: Echinochloa crus-galli; 120 g per 10 ares; sprayed seven days after sowing, upland soil; 14 days after application; read-out: weed inhibition rate
[5] = system: Echinochloa crus-galli var. formosensis; experiment: Test Example 6: herbicidal effect test by application during growth period of paddy rice (low dose); conditions: Echinochloa crus-galli; 7.5 g per 10 ares; applied seven days after sowing, flooded pots; 14 days after application; read-out: weed inhibition rate
How it was run: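 Paddy-soil pots, flooded ~3 cm after sowing weed seeds at 0-1 cm depth, greenhouse-grown. Seven days after sowing, diluted emulsifiable concentrate applied by dropper at 7.5 g active ingredient per 10 ares. Weed inhibition rate (%) scored 14 days after application, in duplicate.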

[6] = system: Digitaria ciliaris; experiment: Test Example 8: herbicidal effect test by stem and leaf treatment in upland field (low dose); conditions: Digitaria ciliaris; 7.5 g per 10 ares; sprayed seven days after sowing, upland soil; 14 days after application; read-out: weed inhibition rate
Procedure: (§3) The present test was conducted in duplicate for each chemical concentration group, and the weed inhibition rate (%) was determined 14 days after chemical application using the following formula (Math. 1). [formula]
(§4) Pots with an area of 36 cm^2 were filled with upland soil (alluvial loam), twenty seeds each of weeds of Digitaria ciliaris, and Echinochloa crus-galli were uniformly mixed with the top 1 cm layer of soil and the surface was lightly pressed down. Seven days after sowing, an emulsifiable concentrate prepared according to Formulation Example 5 using the compound shown below was diluted with water, and the diluted solution was sprayed onto the soil surface at a rate of 100 liters per 10 ares. The amount of the active ingredient to be applied was equivalent to 7.5 g per 10 ares. Fourteen days after chemical application, the herbicidal effect was evaluated according to the same criteria as in Test Example 1.

[7] = system: Echinochloa crus-galli; experiment: as above; conditions: Echinochloa crus-galli; 7.5 g per 10 ares; sprayed seven days after sowing, upland soil; 14 days after application; read-out: weed inhibition rate
Procedure: as §3, §4

[8] = system: Digitaria ciliaris; experiment: Test Example 4: herbicidal effect test by stem and leaf treatment in upland field; conditions: Digitaria ciliaris; 120 g per 10 ares; sprayed seven days after sowing, upland soil; 14 days after application; read-out: weed inhibition rate
[9] = system: Digitaria ciliaris; experiment: Test Example 7: herbicidal effect test by soil application in upland field (low dose); conditions: Digitaria ciliaris, 7.5 g per 10 ares, sprayed one day after sowing, 14 days after application, read-out: weed inhibition rate
Procedure: as §3
as §4, with “One day” for “Seven days”

[10] = system: Echinochloa crus-galli; experiment: as above; conditions: Echinochloa crus-galli, 7.5 g per 10 ares, sprayed one day after sowing, 14 days after application, read-out: weed inhibition rate
Procedure: as §3
as §4, with “One day” for “Seven days”

[11] = system: Echinochloa crus-galli var. formosensis; experiment: Test Example 5: herbicidal effect test by soil application in paddy rice (low dose); conditions: Echinochloa crus-galli, soil, 336 h; 7.5 g per 10 ares; applied immediately after sowing, flooded pots; 14 days after application; read-out: weed inhibition rate
How it was run: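 Flooded-paddy soil application at low dose (7.5 g a.i. per 10 ares), given by dropper as diluted emulsifiable concentrate directly after sowing weeds 0–1 cm deep. Effect evaluated after 14 days in duplicate.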

[12] = system: Echinochloa crus-galli var. formosensis; experiment: Test Example 1: herbicidal effect test by soil application in paddy rice; conditions: Echinochloa crus-galli, soil, 336 h; 120 g active ingredient per 10 ares; applied immediately after sowing, flooded pots; 14 days after application; read-out: weed inhibition rate
How it was run: (§5)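 Weeds sown 0–1 cm deep (30 seeds each) into fertilized, puddled paddy soil in Wagner pots. Pots are flooded immediately, water held near 3 cm, and the diluted emulsifiable concentrate is dripped in at once, delivering 120 g active ingredient per 10 ares under glass-greenhouse management.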

[13] = system: Scirpus juncoides; experiment: Test Example 2: herbicidal effect test by application during growth period of paddy rice; conditions: Schoenoplectiella juncoides; 120 g per 10 ares; applied seven days after sowing, flooded pots; 14 days after application; read-out: weed inhibition rate
How it was run: as §1

[14] = system: Scirpus juncoides; experiment: Test Example 1: herbicidal effect test by soil application in paddy rice; conditions: Schoenoplectiella juncoides, soil, 336 h; 120 g active ingredient per 10 ares; applied immediately after sowing, flooded pots; 14 days after application; read-out: weed inhibition rate
How it was run: as §5

COc1ccccc1COC1CC2(C(C)C)OC1(C)CC2Br (centres unmarked) [1-1349, 5-bromo-2-[(2-methoxyphenyl)methoxy]-1-methyl-4-isopropyl-7-oxabicyclo[2.2.1]heptane]
≥ 80%: inhibition at 1200 g/ha [1] | inhibition at 1200 g/ha [2] | inhibition at 1200 g/ha [3] | inhibition at 1200 g/ha [4] | inhibition at 75 g/ha [5] | inhibition at 75 g/ha [6] | inhibition at 75 g/ha [7] | inhibition at 1200 g/ha [8] | inhibition at 75 g/ha [9] | inhibition at 75 g/ha [10] | inhibition at 75 g/ha [11] | pest or weed control at 1200 g/ha [12]

CC(C)C12CC(OCc3ccc(F)cc3)C(C)(CC1Br)O2 (centres unmarked) [1-1357, 5-bromo-2-[(4-fluorophenyl)methoxy]-1-methyl-4-isopropyl-7-oxabicyclo[2.2.1]heptane]
≥ 80%: inhibition at 1200 g/ha [1] | inhibition at 1200 g/ha [2] | inhibition at 1200 g/ha [3] | inhibition at 1200 g/ha [4] | inhibition at 75 g/ha [5] | inhibition at 75 g/ha [6] | inhibition at 75 g/ha [7] | inhibition at 1200 g/ha [8] | inhibition at 75 g/ha [9] | inhibition at 75 g/ha [10] | inhibition at 75 g/ha [11] | pest or weed control at 1200 g/ha [12]

CC(C)C12CC(OCc3ccccc3Cl)C(C)(CC1Br)O2 (centres unmarked) [1-1358, 5-bromo-2-[(2-chlorophenyl)methoxy]-1-methyl-4-isopropyl-7-oxabicyclo[2.2.1]heptane]
≥ 80%: inhibition at 1200 g/ha [1] | inhibition at 1200 g/ha [2] | inhibition at 1200 g/ha [3] | inhibition at 1200 g/ha [4] | inhibition at 75 g/ha [5] | inhibition at 75 g/ha [6] | inhibition at 75 g/ha [7] | inhibition at 1200 g/ha [8] | inhibition at 75 g/ha [9] | inhibition at 75 g/ha [10] | inhibition at 75 g/ha [11] | pest or weed control at 1200 g/ha [12]

CC(C)C12CC(OCc3ccccc3Br)C(C)(CC1Br)O2 (centres unmarked) [1-1361, 5-bromo-2-[(2-bromophenyl)methoxy]-1-methyl-4-isopropyl-7-oxabicyclo[2.2.1]heptane]
≥ 80%: inhibition at 1200 g/ha [1] | inhibition at 1200 g/ha [2] | inhibition at 1200 g/ha [3] | inhibition at 1200 g/ha [4] | inhibition at 75 g/ha [5] | inhibition at 75 g/ha [6] | inhibition at 75 g/ha [7] | inhibition at 1200 g/ha [8] | inhibition at 75 g/ha [9] | inhibition at 75 g/ha [10] | inhibition at 75 g/ha [11] | pest or weed control at 1200 g/ha [12]

CC(C)C12CC(OCc3c(F)cccc3F)C(C)(CC1Br)O2 (centres unmarked) [1-1379, 5-bromo-2-[(2,6-difluorophenyl)methoxy]-1-methyl-4-isopropyl-7-oxabicyclo[2.2.1]heptane]
≥ 80%: inhibition at 1200 g/ha [1] | inhibition at 1200 g/ha [2] | inhibition at 1200 g/ha [3] | inhibition at 1200 g/ha [4] | inhibition at 75 g/ha [5] | inhibition at 75 g/ha [6] | inhibition at 75 g/ha [7] | inhibition at 1200 g/ha [8] | inhibition at 75 g/ha [9] | inhibition at 75 g/ha [10] | inhibition at 75 g/ha [11] | pest or weed control at 1200 g/ha [12]

CC(C)C12CC(OCc3c(F)cccc3Cl)C(C)(CC1Br)O2 (centres unmarked) [1-1381, 5-bromo-2-[(2-chloro-6-fluorophenyl)methoxy]-1-methyl-4-isopropyl-7-oxabicyclo[2.2.1]heptane]
≥ 80%: inhibition at 1200 g/ha [1] | inhibition at 1200 g/ha [2] | inhibition at 1200 g/ha [3] | inhibition at 1200 g/ha [4] | inhibition at 75 g/ha [5] | inhibition at 75 g/ha [6] | inhibition at 75 g/ha [7] | inhibition at 1200 g/ha [8] | inhibition at 75 g/ha [9] | inhibition at 75 g/ha [10] | inhibition at 75 g/ha [11] | pest or weed control at 1200 g/ha [12]

CC(C)C12CC(OCc3ccccc3I)C(C)(CC1I)O2 (centres unmarked) [1-1430, 2-iodo-5-[(2-iodophenyl)methoxy]-1-isopropyl-4-methyl-7-oxabicyclo[2.2.1]heptane]
≥ 80%: inhibition at 1200 g/ha [1] | inhibition at 1200 g/ha [13] | inhibition at 1200 g/ha [2] | inhibition at 1200 g/ha [3] | inhibition at 1200 g/ha [4] | inhibition at 75 g/ha [5] | inhibition at 75 g/ha [6] | inhibition at 75 g/ha [7] | inhibition at 75 g/ha [9] | inhibition at 75 g/ha [10] | inhibition at 75 g/ha [11] | pest or weed control at 1200 g/ha [12] | pest or weed control at 1200 g/ha [14]

CC(C)[C@]12C[C@@H](OCc3ccc(F)cc3F)[C@](C)(CC1=O)O2 [2-16, (1R,4S,5R)-5-((2,4-difluorobenzyl)oxy)-1-isopropyl-4-methyl-7-oxabicyclo[2.2.1]heptan-2-one]
≥ 80%: inhibition at 1200 g/ha [1] | inhibition at 1200 g/ha [2] | inhibition at 1200 g/ha [3] | inhibition at 1200 g/ha [4] | inhibition at 75 g/ha [5] | inhibition at 75 g/ha [6] | inhibition at 75 g/ha [7] | inhibition at 1200 g/ha [8] | inhibition at 75 g/ha [9] | inhibition at 75 g/ha [10] | inhibition at 75 g/ha [11] | pest or weed control at 1200 g/ha [12] | pest or weed control at 1200 g/ha [14]
